What was measured:
[1] = tested on: HCC70 triple-negative breast cancer cell line; assay: HCC70 cell viability, CellTiter Glo 2.0; type: cell-based; details: 72 h
Experimental: (§1) FIG. 25(A-C) INB03 enhances sorafenib inhibition in cell proliferation of colon, gastric and triple-negative breast cancer cells. Cell proliferation was evaluated in the HT-29 colon cancer (FIG. 25A), SNU-1 gastric cancer (FIG. 25B) and in the in the HCC-70 triple-negative breast cancer cell lines (FIG. 25C). Cells were treated with vehicle (DMSO 0.1%), sorafenib (Soraf), or INB03 (10 μg/ml), alone or in different combinations for 72 h. (FIGS. 25A and B) HT-29 and SNU-1 cell proliferation was evaluated by cell count Countess automatic cell count. (FIG. 25C) HCC70 cell viability was analyzed by CellTiter Glo 2.0 assay.
FIG. 26 INB03 enhances cediranib inhibition in cell viability of HCC70 triple-negative breast cancer cells. Cell viability was evaluated in the HCC70 cell line. Cells were treated with vehicle (DMSO 0.1%), cediranib (cedir), or INB03 (10 μg/ml), alone or in different combinations for 72 h. Cell viability was analyzed by CellTiter Glo 2.0 assay.

MDA-MB-468 cell line = assay: MDA-MB-468 cell viability, CellTiter Glo 2.0; type: cell-based; details: Homo sapiens, 72 h, read-out: decrease of MDA-MB-468 cell viability
Experimental: FIG. 24 INB03 enhances erlotinib inhibition in cell viability of MDA-MB 468 triple-negative breast cancer cells. Cell viability was evaluated in the MDA-MB-468 cell line. Cells were treated with vehicle (DMSO 0.1%), erlotinib (erlot), or INB03 (10 μg/ml), alone or in different combinations for 72 h.

JIMT-1-shMUC4 cells [2] = assay: JIMT-1-shMUC4 cell proliferation with lapatinib and TNFα blockade, cell count at 72 h; type: cell-based
Experimental: (§2) Then, to study the participation of MUC4 in lapatinib resistance, we transduced the trastuzumab-resistant JIMT-1 cell line with a plasmid encoding a doxycycline (Dox)-inducible shRNA targeting MUC4, and obtained JIMT-1-shMUC4 cells.
(§3) FIG. 18 TNFα blockade sensitizes lapatinib-resistant cells in vitro. Cell proliferation was evaluated in JIMT-1 and JIMT-1-shMUC4 cell lines by cell count at 72 h of treatment. Cells were treated with immunoglobulin G (IgG 5 μg/ml), lapatinib (Lap 1 μM), etanercept (E 5 μg/ml), or INB03 (DN; 10 μg/ml), alone or in different combinations. FIG. 18A. JIMT-1 wild type. FIGS. 18B and 18C JIMT-1-shMUC4 and in C cells were treated with Dox 10 μg/ml for 10 days before and during the experiment to assure MUC4 downregulation.

JIMT-1 = JIMT-1 migration with lapatinib and TNF-blocking agents; type: cell-based
Experimental: (§4) Again, lapatinib is used in the metastatic setting (infra). The metastatic cascade is a multistep process that involves migration and invasion of tumor cells that pass through the basement membrane and extracellular matrix, the intravasation to the lymphatic or vascular circulation, the extravasation and the attachment of a new location to generate a secondary tumor. The migration ability of JIMT-1 treated with lapatinib and TNF-blocking agents was evaluated. […] To study MUC4 contribution on the inhibition of migration observed by simultaneous treatment of TNF-blocking drugs and lapatinib, the JIMT-1 cell line was transduced with a plasmid encoding a doxycycline-inducible shRNA targeting MUC4, and JIMT-1-shMUC4 cells were obtained (FIGS. 16 B and C).

JIMT-1-shMUC4 cells [3] = assay: JIMT-1-shMUC4 migration with lapatinib and TNF-blocking agents; type: cell-based
Experimental: as §4

[4] = tested on: SK-OV-3 ovarian cancer cell line; assay: SK-OV-3 cell viability, CellTiter Glo 2.0; type: cell-based; details: lapatinib 2.5 μM alone, 72 h
Experimental: Cells were treated with vehicle (DMSO 0.1%), lapatinib (Lap), or NB03 (10 μg/ml), alone or in different combinations for 72 h. (FIG. 22A) SK-OV-3 cells viability was analyzed by CellTiter Glo 2.0 assay. […] Data was analyzed by one-way ANOVA coupled with a Tukey's post hoc test. The data as shown represents mean SEM. *p<0.05, **p<0.01.

[5] = tested on: SNU-1 gastric cancer cell line; assay: SNU-1 cell proliferation, Countess automatic cell count; type: cell-based; details: 72 h
Experimental: In order to extend our findings of the role of INB03 in increasing lapatinib inhibitory effect on HER2+ breast cancer cell proliferation to other tumor types, we used both drugs in the ovarian cancer SK-OV-3 cells and in the gastric SNU-1 cells. Both cell lines express HER2 and MUC4.
FIG. 22(A-B) INB03 enhances lapatinib inhibition in cell proliferation of ovarian and gastric cancer cell. Cell proliferation was evaluated in the SK-OV-3 ovarian cancer cell line (FIG. 22A) and in the SNU-1 gastric cancer cell line. Cells were treated with vehicle (DMSO 0.1%), lapatinib (Lap), or NB03 (10 μg/ml), alone or in different combinations for 72 h. (FIG. 22A) SK-OV-3 cells viability was analyzed by CellTiter Glo 2.0 assay. (FIG. 22B) SNU-1 cell proliferation was evaluated by cell count Countess automatic cell count.
as §1

[6] = stated without test; cited from earlier work
HER2+ breast cancer = details: patients with trastuzumab-resistant disease; cited from earlier work
HT-29 colon cancer cells = assay: HT-29 cell proliferation, Countess automatic cell count; type: cell-based; details: 72 h
Experimental: as §1

JIMT-1 cell line [7] = assay: JIMT-1 cell proliferation with lapatinib and TNFα blockade, cell count at 72 h; type: cell-based; details: TNFα blocker simultaneously with lapatinib 1 μM, E 5 μg/ml, INB03 10 μg/ml
Experimental: as §2, §3

JIMT-1 cell line [8] = assay: JIMT-1 cell proliferation, [3H]-thymidine incorporation; type: cell-based; details: 48 h treatment, 18 h pulse; T 10 μg/ml, P 10 μg/ml, E 5 μg/ml, DN 2 μg/ml; vs IgG
Experimental: A strategy of implementing a TNFα blockade was employed, either with Etanercept (E) or the dominant negative protein XPRO1595 (DN) in JIMT-1, de novo T and T+P resistant cell line which produces TNFα. JIMT-1 tumors were established in female nude mice to explore whether TNFα blockade overcomes T+P resistance. Animals were treated with 5 mg/kg of IgG, P, T+P, 10 mg/kg of DN or P+T+DN i.p. twice a week. […] Proliferation of cells treated with IgG, T, P, DN, E (10 μg/ml, 10 μg/ml, 10 μg/ml, 2 μg/ml and 5 μg/ml respectively) as monotherapy and in different combinations was evaluated by cell count or [3H]-thymidine incorporation. The combination of TNFα blockade with T+P inhibited cell proliferation vs. IgG, P+T, P+E, P+DN (p<0.0001).
Cell proliferation in JIMT-1 cell line was evaluated by ^3[H]-thymidine incorporation assay at 48 h of treatment with 18 h pulse (See Rivas M A, et al., Exp Cell Res 2008; 314:509-29, the contents of which are hereby incorporated by reference). […] The data as shown in FIG. 3 represents mean±standard deviation *p<0.05, **p<0.01, ***p<0.001 vs. IgG.

COc1cc2c(Oc3ccc4[nH]c(C)cc4c3F)ncnc2cc1OCCCN1CCCC1 [cediranib]
cytotoxicity at 2.5 µM ([1]; Homo sapiens, HCC70, cediranib 2.5 μM alone, read-out: effect on HCC70 cell viability): 20% | cytotoxicity at 5 µM ([1]; Homo sapiens, HCC70, cediranib 5 μM alone, read-out: effect on HCC70 cell viability): 46%

C#Cc1cccc(Nc2ncnc3cc(OCCOC)c(OCCOC)cc23)c1 [erlotinib]
cytotoxicity at 1.25 µM (MDA-MB-468 cell line; erlotinib 1.25 μM alone): 27% | cytotoxicity at 2.5 µM (MDA-MB-468 cell line; erlotinib 2.5 μM alone): 38% | cytotoxicity at 5 µM (MDA-MB-468 cell line; erlotinib 5 μM alone): 48%

CS(=O)(=O)CCNCc1ccc(-c2ccc3ncnc(Nc4ccc(OCc5cccc(F)c5)c(Cl)c4)c3c2)o1 [lapatinib]
cell proliferation (JIMT-1-shMUC4 cells [2]; JIMT-1-shMUC4 with Dox 10 μg/ml (MUC4 silenced), lapatinib): decrease in JIMT-1 cells proliferation | JIMT-1 migration (JIMT-1; each drug alone): no effect | cell migration (JIMT-1-shMUC4 cells [3]; JIMT-1-shMUC4 with doxycycline (MUC4 silenced), lapatinib): decrease in JIMT-1 cells migration | effect on viability of SK-OV-3 cells [4]: no effect | effect on proliferation of SNU-1 cells ([5]; lapatinib 1 μM alone): no effect | crossing of the blood-brain-barrier [6]: cross the blood-brain-barrier | patients with clinical benefit (HER2+ breast cancer): < 30%

CNC(=O)c1cc(Oc2ccc(NC(=O)Nc3ccc(Cl)c(C(F)(F)F)c3)cc2)ccn1 [sorafenib]
effect on SNU-1 proliferation ([5]; sorafenib 1.5 μM alone): did not affect its proliferation | decrease of SNU-1 cell proliferation ([5]; sorafenib 3 μM alone): 38% | effect on HT-29 cell proliferation (HT-29 colon cancer cells; sorafenib 2.5 μM alone): no inhibitory effect | reduction of HT-29 proliferation (HT-29 colon cancer cells; sorafenib 10 μM alone): 62% | cytotoxicity at 1.5 µM ([1]; Homo sapiens, HCC70, sorafenib 1.5 μM alone, read-out: HCC70 viability reduction): 44% | effect on HCC70 viability ([1]; sorafenib 1 μM alone): no effect

etanercept
JIMT-1 cell proliferation (JIMT-1 cell line [7]): reduces JIMT-1 cell proliferation | cell proliferation (JIMT-1-shMUC4 cells [2]; JIMT-1-shMUC4 with Dox, TNFα blocker added to lapatinib): did not further induce a decrease in cell proliferation | JIMT-1 migration (JIMT-1; TNF blocker together with lapatinib): impairs JIMT-1 migration | JIMT-1 migration (JIMT-1; each drug alone): no effect | cell migration (JIMT-1-shMUC4 cells [3]; JIMT-1-shMUC4 with doxycycline, TNF blocker added to lapatinib): did not further induce a decrease in cell migration | cell migration (JIMT-1-shMUC4 cells [3]; JIMT-1shMUC4 without doxycycline, TNF blocker with lapatinib): decreased their migration

pertuzumab: monoclonal antibody that disrupts HER2/HER3 dimerization
cell proliferation in JIMT-1 cell line (JIMT-1 cell line [8]): negligible, if any, impact

Source: patent US20230118642A1, “METHOD FOR TREATING THERAPY-RESISTANT MUC4+ CANCER” (CONSEJO NACIONAL DE INVESTIGACIONES CIENTÍFICAS Y TÉCNICAS, priority 2020, published 2023)
